Consider ten compounds from publication PMC3228873 (Journal of medicinal chemistry, 2011).

One test concerns the target TbrPDEB1 (Trypanosoma brucei, UniProt Q8WQX9). As to the kind of experiment: TbrPDE assay, recombinant TbrPDEB1 catalytic domain. To be noted: for IC50: read-out: TbrPDEB1 IC50, Table 1, 10% DMSO, 25 μM cAMP, ">> x μM" if <25% inh at x μM, "> x μM" if 25-50% inh at x μM; for activity against TbrPDEB1 (in words): benchmark screening; for inhibition at 100 µM / inhibition at 10 µM: read-out: inhibition of TbrPDEB1. The test is classed as biochemical.

A further test deals with TbrPDEB2 (Trypanosoma brucei brucei, UniProt Q38F42). As to the kind of experiment: TbrPDE assay, recombinant TbrPDEB2 catalytic domain. It counts as biochemical.
Test [1] concerns Bloodstream forms of Trypanosoma brucei brucei strain 427. The experiment in a line: Trypanosome cell culture assay. It counts as cell-based.

SMILES strings stand for the structures.

The IC50 is the concentration at which inhibition is half-maximal. Turning to `CS(=O)(=O)Oc1ccc2c(NC(N)=O)c(C(=O)c3ccc(Cl)cc3Cl)oc2c1` [BAY 19-8004], the concentration for half-maximal inhibition (IC50) on TbrPDEB1 was greater than 10 µM; on TbrPDEB2 (read-out: TbrPDEB2 IC50, Table 1, 10% DMSO, 25 μM cAMP, ">> x μM" if <25% inh at x μM, "> x μM" if 25-50% inh at x μM), greater than 10 µM. With `COc1ccc(C(=O)Nc2c(Cl)cncc2Cl)cc1OC1CCCC1` [Compound 1, piclamilast], at TbrPDEB1 (single concentration, not stated for this compound), the “inhibition of TbrPDEB1” value is reported as “over 50%”. Regarding `COc1cc(C(=O)Nc2c(Cl)cncc2Cl)cc(OC)c1OC` [Compound 9, N-(3,5-dichloropyridin-4-yl)-3,4,5-trimethoxybenzamide], the “cellular (trypanocidal) activity (in words)” value in test [1] is listed as “did not show cellular activity”. Also, the “activity against TbrPDEB1 (in words)” value on TbrPDEB1 was “without TbrPDEB1 or B2 activity”. Moreover, the “activity against TbrPDEB2 (in words)” value at TbrPDEB2 is on record as “without TbrPDEB1 or B2 activity”. For orientation: inhibition means how much of the control response was suppressed. With `OCCN(CCO)c1nc(N2CCCCC2)c2nc(N(CCO)CCO)nc(N3CCCCC3)c2n1` [Dipyridamole (3), dipyridamole], at TbrPDEB1, the inhibition at 100 µM was greater than 50%. Consider `COc1cccc(Nc2c(C(N)=O)cnc3c(C)cc(S(=O)(=O)c4cccc(C(=O)N(C)C)c4)cc23)c1` [GSK-256066, (5)], for which the inhibition at 10 µM at TbrPDEB1 was no less than 50%. Same read-out and setting: next, `Cc1noc(/C(=C/c2cccc(-c3cc(C(C)(C)S(C)(=O)=O)cc4cccnc34)c2)c2ccc(S(C)(=O)=O)cc2)n1` [L-454560 (4)]: no less than 50%. Take `CCCCOc1cc(CC2CNC(=O)N2)ccc1OC` (stereo not shown) [RO 20-1724]: the 50% inhibitory concentration (IC50) at TbrPDEB1 was greater than 100 µM. Turning to `O=C(Nc1c(Cl)cncc1Cl)c1ccc(OC(F)F)c(OCC2CC2)c1` [Roflumilast (6), roflumilast], the “activity against TbrPDEB1 (in words)” value at TbrPDEB1 is “essentially inactive”.

For the compound `COc1ccc(C2CNC(=O)C2)cc1OC1CCCC1` (stereo not shown) [Rolipram (7), rolipram], at TbrPDEB1, the “activity against TbrPDEB1 (in words)” value was “essentially inactive”.

As for `COc1cc2c(cc1OC)-c1c/c(=N\c3c(C)cc(C)cc3C)n(C)c(=O)n1CC2` [Trequinsin (2), trequinsin], the inhibition at 100 µM at TbrPDEB1 is greater than 50%.
